{"source": "paper PMC3404088", "about": "“Development of a Small D-Enantiomeric Alzheimer’s Amyloid-β Binding Peptide Ligand for Future In Vivo Imaging Applications” (PLoS ONE, 2012)", "key": {"[1]": {"molecular_target": "T1, Aβ1–42 fibrils (Homo sapiens, UniProt P05067)", "T1 construct": "Aβ1–42 was dissolved in hexafluoroisopropanol (HFIP)", "test": "SPR single cycle experiments (Biacore T100), heterogeneous ligand model", "type": "binding", "set-up": "Rmax1 / Rmax2 / k off2: unit not given here", "details": "PBS pH 7.4, 25°C, 30 µl/min", "description": "Aβ1–42 fibrils were prepared as described above. Thereafter, the sample was centrifuged for 10 min at 16000×g, the supernatant discarded and this procedure repeated for 3 times. Formation of fibrils was confirmed by a standard Thioflavin-T fluorescence assay. Aβ1–42 fibrils were covalently immobilized on a CM5 sensor chip via amine coupling. Prior to immobilization of Aβ1–42 fibrils the sample was centrifuged and fibrils resuspended in 10 mM sodium acetate buffer pH 4.0. Flow cell sensor surfaces were activated with a freshly prepared solution of 0.2 M 1-ethyl–3-(3-dimethylaminopropyl)-carbodiimide (EDC) and 0.05 M N-hydroxysuccinimide (NHS) at a constant flow rate of 10 µl/min for 420 s. Aβ1–42 fibrils (∼ 110 µM monomeric Aβ1–42) were injected for 600 s with a flow rate of 10 µl/min. Deactivation of the surface was performed by injection of 1 M ethanolamine-HCl pH 8.5 at the same flow rate and duration as in the activation step. In the reference cells the deactivation step was performed directly after the activation step. All SPR experiments were performed on a Biacore T100 system with series S CM5 sensor chips at 25°C. The system was run with the Biacore T100 Control Software Version 1.1.1. PBS (10 mM sodium phosphate buffer pH 7.4, 137 mM NaCl, 2.7 mM KCl) was chosen as running buffer (as previously during fibril formation) in order to minimize alterations of fibril organization. All buffers were sterile filtered (0.22 µm). After each docking of a sensor chip the detector was normalized with BIAnormalizing solution (70% glycerol, GE Healthcare) to compensate for slight differences in detector responses of individual sensor chips. For all interaction analyses the Type 1 reagent rack was used. Siliconized sample vials were used with their corresponding rubber caps (Type 2, GE Healthcare) to minimize evaporation effects. Throughout all runs the flow rate was set to 30 µl/min. All interaction studies were performed in single-cycle mode. Here, five different concentrations of analyte were passed through a reference cell and subsequently through flow cells with immobilized ligand within the same binding cycle for 60 seconds, starting with the lowest concentration. Successive injections were performed in the order of increasing concentrations. Each following concentration was a fivefold increase of the previous. The lowest analyte concentration was chosen to be 100 nM and therefore the following were 500, 2500, 12500 and 62500 nM. Biacore data were evaluated using BiaEvaluation 4.1.1 (GE Healthcare) and Biacore T100 Evaluation Software (GE Healthcare). Obtained binding data with compounds were double referenced. This was achieved by collecting the data in dual-channel mode with a reference flow cell connected upstream of the flow cell with immobilized Aβ1–42 fibrils and the subtraction of the obtained binding responses with a blank buffer injection (PBS)."}, "[2]": {"molecular_target": "T2, Aβ1–42 monomers (Homo sapiens, UniProt P05067)", "T2 construct": "Aβ1–42 peptide film was prepared from lyophilized powder (Bachem); purchased Bachem", "test": "ELISA, compound binding to Aβ1–42 peptide film (predominantly monomers)", "details": "10 µg/ml compound; for binding value, binding Aβ1–42 monomers: optical density after pNPP incubation", "description": "(§1) Aβ1–42 peptide film was prepared from lyophilized powder (Bachem). The powder was reconstituted in HFIP to a final concentration of 1 mM, sonicated for 15 min at room temperature (RT), agitated overnight (ON), and aliquoted into non-siliconized microcentrifuge tubes (12 µl corresponding to 55 µg). The HFIP was evaporated under a stream of argon. The resulting peptide film was vacuum dried for 10 min and stored at -80°C. For direct use as peptide film, an aliquot of Aβ1–42 peptide film was reconstituted with 0.54% dimethylsulphoxide (DMSO) in phosphate buffered saline (PBS) to obtain a final concentration of 10 µg/ml and then used for the ELISA as described below. To prepare fibrils, 55 µg aliquot of peptide film was dissolved in 55 µl of 50 mM Tris-HCl, pH 7.4 and incubated at 37°C for five days. Next, the sample was centrifuged (10’000 rpm for 5 min) and the pellet was diluted in 50 mM Tris-HCl, pH 7.4.\n(§2) Aβ1–42 peptide preparations were diluted in 0.05 M bicarbonate-carbonate buffer pH 9.6, to the final concentration of 10 µg/ml and coated onto ELISA plates (MaxiSorp, Nunc). After blocking (PBS; 0.05% Tween; 1% BSA), plates were incubated with 2- or 3-fold dilutions of D-compounds (starting concentration: 10 µg/ml) and incubated for 2 h at 37°C. Plates were then washed and incubated for 2 h at 37°C with the detection antibody Rabbit-a-fluorescein isothiocyanate-AP (Sigma; 1∶10’000 dilution) followed by the incubation for 2.5 h at room temperature (RT) with 1 mg/ml of phosphatase substrate (pNPP, Sigma). The absorbance signal was read at 405 nm wavelength using a Tecan plate reader (Tecan Group Lt, Männedorf, Switzerland).\n(§3) ELISA plates (MaxiSorp, Nunc) were coated with anti-Aβ antibody 6E10 (Covance) at a concentration of 5 µg/ml. Either monomeric Aβ1–42 peptide film (mainly monomeric) or Aβ1–42 fibrils, which were prepared as described above, were diluted in PBS to the final concentration 10 µg/ml and mixed with 10-fold dilutions of D-peptide compounds in Eppendorf tubes (starting concentration of D-peptide compounds: 10 µg/ml). The tubes were incubated for 2 h at 37°C. Next, samples were distributed onto the ELISA plate and kept for 2 h at 37°C. Plates were washed and incubated for 2 h at 37°C with the detection antibody Rabbit-a-fluorescein isothiocyanate-AP (Sigma; 1∶10′000 dilution) following the incubation overnight (ON) at RT with 1 mg/ml of phosphatase substrate (pNPP, Sigma). The absorbance signal was read at 405 nm wavelength using the Tecan plate reader (Tecan Group Ltd, Männedorf, Switzerland).\n(§4) To verify the SPR results, ELISA was employed to assay the interaction of the ACI-80 derivatives ACI-80-Kϕ, ACI-81-Kϕ, ACI-82-Kϕ, ACI-83-Kϕ, ACI-84-Kϕ, ACI-85-Kϕ, ACI-86-Kϕ, ACI-87-Kϕ, [^19F]-ACI-87-Kϕ, ACI-88-Kϕ, [^19F]-ACI-88-Kϕ, ACI-89-Kϕ, [^19F]-ACI-89-Kϕ) with Aβ1–42 fibrils and Aβ peptide film in solution containing mostly monomers and smaller oligomers (Table 4). To avoid any bias by possible conformational influences the ELISA has been carried out in two versions, once with immobilized antibody and once with immobilized Aβ1–42 as described in the methods section. Both assays yielded similar results and confirmed each other. […] Panels A and B in Figure 2 show the results for binding to Aβ1–42 fibrils and panels C and D in Figure 2 show the results for binding to freshly prepared Aβ1–42 peptide film, which contains mostly monomeric Aβ. In Table 4, the performance of the peptides is expressed relative to that of ACI-80-Kϕ."}, "[3]": {"test": "Analysis of ACI-80 stability: N-terminal glutamine vs pyroglutamate content by HPLC/ESI-MS", "type": "physicochemical", "details": "solid, freshly synthesized and untreated, HPLC/ESI-MS", "description": "In solution, N-terminal glutamine peptides such as D1 are prone to convert into N-terminal pyroglutamate species: Gln-SHYRHISPAQV → Pyr-SHYRHISPAQV. Therefore, the stability of solid ACI-80, solid ACI-80-Kϕ (ϕ: fluorescein isothiocyanate, covalently linked to the peptide via a lysine (K)) and [^127I]-ACI-80 in solution was investigated by JPT Peptide Technologies GmbH, Berlin, Germany using HPLC/ESI-MS whereby the relative content of N-terminal Gln peptide and N-terminal Pyr peptide was assessed.\nAn important observation during initial compound stability characterization experiments was the partial conversion of the N-terminal glutamine of [^127I]-ACI-80 into pyro-glutamate. It is known that peptides with an N-terminal glutamine are prone to conversion of this residue into a pyroglutamate. Therefore, the composition of freshly synthesized and untreated ACI-80 and ACI-80-Kϕ as well as [^127I]-ACI-80 after iodination were investigated. […] It was observed that freshly synthesized ACI-80 and ACI-80-Kϕ contained only minor fractions of pyroglutamic acid while about one third of [^127I]-ACI-80 in solution already converted into N-terminal pyroglutamate species."}, "[4]": {"molecular_target": "T1, Aβ1–42 fibrils", "test": "ELISA, compound binding to Aβ1–42 fibrils", "details": "for binding value, binding Aβ1–42 fibrils: optical density after pNPP incubation", "description": "as §1, §2, §3, §4"}, "[5]": {"molecular_target": "T3, Aβ plaques in brain sections of transgenic APP (V717I) x PS1 (A246E) mice (Homo sapiens, UniProt P05067)", "T3 construct": "triple image overlay of respective stains reveal that the ϕ-compounds identify plaques; from tissue; host or cells: brain cryosections of APP (V717I) x PS1 (A246E) transgenic mice", "test": "Ex vivo staining of mouse brain slices by FITC labeled compounds", "description": "In vitro tissue section staining was performed according to previously described protocols with slight modifications. Mouse brains were obtained from male transgenic (tg) APP (London mutation V717l) x PS1 (A246E) mice aged 13–21 months and from female wild type (wt) mice aged 9–10 months. The mice were anesthetized and transcardially perfused with saline. The brains were removed and snap frozen. 10 µm thick sagittal cryostat sections through the whole mouse brain were produced and mounted onto glass slides. ϕ-labeled compounds were applied to investigate binding. Thus, the slides were thawed, washed in PBS and fixed in 4% paraformaldehyde (20 min at RT) just before incubation with ϕ-labeled compounds. One series of sections was treated only with fluorescent compounds (0.01 mg/ml, incubation time 2 h) while another series of sections were incubated with anti-Aβ antibody 6E10 at 1∶500 dilution (SIG-39320, Covance; final antibody concentration was 2 µg/ml) in addition to ϕ-labeled compounds (0.01 mg/ml). The slices were washed in PBS. The sections incubated with ϕ-labeled compound and 6E10 antibody were further incubated for 2 h at RT with Goat-anti-Mouse IgG1– AlexaFluor 555 (A21127, Invitrogen, 1∶1000 dilution) and washed with PBS. Finally, all sections were counterstained with 4’–6-Diamidino-2-phenylindole (DAPI, 32670, Sigma, incubation 5 min at RT) for the visualization of cell nuclei. The slides were mounted using Prolong Gold Antifade mounting medium (P36930, Invitrogen) and coverslipped.\nThe tissues were analyzed using a fluorescent Zeiss Axioscope 2 Plus microscope using the AxioVision 4 image analysis software.\nA further series of slices was stained using a primary anti-fluorescein isothiocyanate antibody combined with alkaline phosphatase reaction for visualization of ϕ-labeled peptides. Briefly, the sections were treated with blocking solution (10% normal goat serum (NGS), 0.25% Triton X-100 in PBS for 1 h at RT) and incubated with primary antibody (rabbit-anti-FITC; Invitrogen) at a dilution of 1∶500. The sections were then washed and incubated for 2 h at RT with the secondary antibody goat-anti-rabbit-alkaline phosphatase (Sigma) at a dilution of 1∶100. After washing, the slides were incubated with BCIP/NBT substrate (Sigma) for 3 min, washed, dehydrated and mounted using Eukitt mounting medium."}, "[6]": {"details": "average of two or three experiments"}, "[7]": {"details": "10 µg/ml compound, average of two or three experiments"}}, "note": "Square brackets hold non-standard residues; d marks the D form. Peptide text beside a SMILES is read from it. * marks the point of attachment. 5FAM = O=C1OC2(c3ccc(O)cc3Oc3cc(O)ccc32)c2ccc(C(=O)*)cc21"}
{"molecule": "CC[C@@H](C)[C@@H](NC(=O)[C@@H](Cc1c[nH]cn1)NC(=O)[C@@H](CCCNC(=N)N)NC(=O)[C@@H](Cc1ccc(O)cc1)NC(=O)[C@@H](Cc1c[nH]cn1)NC(=O)[C@@H](CO)NC(=O)[C@H](N)CCC(N)=O)C(=O)N[C@H](CO)C(=O)N1CCC[C@@H]1C(=O)N[C@H](C)C(=O)N[C@H](CCC(N)=O)C(=O)N[C@@H](C(=O)N[C@H](CCCCNC(=O)c1ccc2c(c1)C(=O)OC21c2ccc(O)cc2Oc2cc(O)ccc21)C(=O)O)C(C)C", "note": "[ACI-80-Kϕ] (H-[dQ][dS][dH][dY][dR][dH][dI][dS][dP][dA][dQ][dV][dK](5FAM)-OH; C-terminus assumed)", "values": [{"measurement": "Rmax2", "setting": "[1]", "value": 43.7}, {"measurement": "k off1", "setting": "[1]", "value": 0.0252}, {"measurement": "k off2", "setting": "[1]", "value": 1.58}, {"measurement": "k on1", "setting": "[1]", "value": 469}, {"measurement": "k on2", "setting": "[1]", "value": "1.37e4"}, {"measurement": "Rmax1", "setting": "[1]; global fit of three lowest responding concentrations", "value": 12.2}, {"measurement": "binding value, binding Aβ1–42 monomers", "setting": "[2]; [6]", "value": 0.49}, {"measurement": "Identified amino acid at the N-terminal position: glutamine", "setting": "[3]; relative content of N-terminal Gln peptide", "value": ">94.4", "unit": "%"}, {"measurement": "Identified amino acid at the N-terminal position: pyroglutamate", "setting": "[3]; relative content of N-terminal Pyr peptide", "value": "<5.6", "unit": "%"}, {"measurement": "binding value, binding Aβ1–42 fibrils", "setting": "[4]; [7]", "value": 0.90}]}
{"molecule": "PSHYRHISPAQKK[^19F]ϕ [[^19F]-ACI-89-Kϕ, fluorinated ϕ-labeled ACI-89]", "values": [{"measurement": "binding value, binding Aβ1–42 monomers", "setting": "[2]; value of one single experiment only", "value": "*1.19"}, {"measurement": "staining / recognition of Aβ plaques", "setting": "[5]; 0.01 mg/ml ϕ-labeled compound, 2 h, 10 µm cryostat sections, fluorescence microscopy", "value": "readily recognized amyloid plaques"}, {"measurement": "overlay with 6E10 anti-Aβ staining", "setting": "[5]; co-staining with 6E10 (2 µg/ml) and DAPI, triple overlay", "value": "good overlap with 6E10 Aβ staining"}, {"measurement": "staining pattern", "setting": "[5]; fluorescence microscopy", "value": "more diffuse and comparable to the staining of 6E10 Aβ antibody"}, {"measurement": "ELISA binding to Aβ1–42", "setting": "[4]", "value": "bound well to Aβ1–42 fibrils"}, {"measurement": "binding value, binding Aβ1–42 fibrils", "setting": "[4]; 10 µg/ml compound, value of one single experiment only", "value": "*1.86"}]}
{"molecule": "ZSFYRHISPAQVKϕ [ACI-84-Kϕ, ϕ-labeled ACI-80 derivative, Q1Z and H3F]", "values": [{"measurement": "% binding relative to ACI-80-Kϕ, Aβ1–42 monomers", "setting": "[2]; ACI-80-Kϕ = 100", "value": 63, "unit": "%"}, {"measurement": "binding value, binding Aβ1–42 monomers", "setting": "[2]; [6]", "value": 0.31}, {"measurement": "ELISA binding to Aβ1–42", "setting": "[4]", "value": "reduced"}, {"measurement": "% binding relative to ACI-80-Kϕ, Aβ1–42 fibrils", "setting": "[4]; 10 µg/ml compound, ACI-80-Kϕ = 100", "value": 64, "unit": "%"}, {"measurement": "binding value, binding Aβ1–42 fibrils", "setting": "[4]; [7]", "value": 0.58}]}
